Results as given in ChEMBL document CHEMBL4706632, “Development of Potential Antitumor Agents from the Scaffolds of Plant-Derived Terpenoid Lactones” (J Med Chem, 2020).

Columns and labels:
[1] = Antiproliferative activity against human Panc-28 cells incubated for 72 hrs by MTT assay; format: functional, cell-based; conditions: MDA-Panc-28, 72 h
HT-29 [2] = assay: Cytotoxicity against human HT-29 cells incubated for 48 hrs by MTT assay; format: functional, cell-based; conditions: HT-29, 48 h
MDA-MB-231 [3] = assay: Cytotoxicity against human MDA-MB-231 cells incubated for 48 hrs by MTT assay; format: functional, cell-based; conditions: MDA-MB-231, 48 h
A2058 = assay: Cytotoxicity against human A2058 cells incubated for 48 hrs by MTT assay; format: functional, cell-based; conditions: A2058, 48 h
[4] = Inhibition of [3H]PAF-acether binding to PAFR in rabbit platelet plasma membranes incubated for 1 hr; format: cell membranes, Oryctolagus cuniculus, Cell membrane
[5] = Inhibition of PAFR in New Zealand rabbit platelets assessed as reduction in PAF-induced platelet aggregation measured within 5 mins by aggregometry analysis; format: tissue-based; conditions: Oryctolagus cuniculus
P388 = assay: Cytotoxicity against mouse P388 cells incubated for 48 hrs by MTT assay; format: functional, cell-based; conditions: P388, 48 h
MDA-MB-435 = assay: Antiproliferative activity against human MDA-MB-435 cells incubated for 48 hrs by [3H]-thymidine incorporation assay; format: functional, cell-based
MCF7 [6] = assay: Antiproliferative activity against human MCF7 cells incubated for 48 hrs by [3H]-thymidine incorporation assay; format: functional, cell-based
Jurkat = assay: Cytotoxicity against human Jurkat cells incubated for 72 hrs by MTT assay; format: functional, cell-based
CCRF-CEM = assay: Cytotoxicity against human CEM cells incubated for 72 hrs by MTT assay; format: functional, cell-based
HL-60 [7] = assay: Cytotoxicity against human HL-60 cells incubated for 72 hrs by MTT assay; format: functional, cell-based; conditions: HL-60, 72 h
SK-OV-3 = assay: Cytotoxicity against human SK-OV-3 cells by SRB staining assay; format: functional, cell-based
SK-MEL-2 = assay: Cytotoxicity against human SK-MEL-2 cells by SRB staining assay; format: functional, cell-based
A549 = assay: Cytotoxicity against human A549 cells by SRB staining assay; format: functional, cell-based
XF498 = assay: Cytotoxicity against human XF498 cells by SRB staining assay; format: functional, cell-based
HCT-15 = assay: Cytotoxicity against human HCT-15 cells by SRB staining assay; format: functional, cell-based
MCF7 [8] = assay: Cytotoxicity against human MCF7 cells incubated for 48 hrs by alamarblue reagent based assay; format: functional, cell-based; conditions: MCF7, 48 h
HepG2 [9] = assay: Cytotoxicity against human HepG2 cells incubated for 48 hrs by alamarblue reagent based assay; format: functional, cell-based; conditions: HepG2, 48 h
HepG2 [10] = assay: Cytotoxicity against human HepG2 cells by MTT assay; format: functional, cell-based
HCT-116 [11] = assay: Cytotoxicity against human HCT-116 cells by MTT assay; format: functional, cell-based
BGC-823 = assay: Cytotoxicity against human BGC-823 cells by MTT assay; format: functional, cell-based
HT-29 [12] = assay: Antiproliferative activity against human HT-29 cells; format: functional, cell-based
HeLa = assay: Antiproliferative activity against human HeLa cells; format: functional, cell-based
MDA-MB-231 [13] = assay: Cytotoxicity against human MDA-MB-231 cells incubated for 72 hrs by MTT assay; format: functional, cell-based; conditions: MDA-MB-231, 72 h
MCF7 [14] = assay: Cytotoxicity against human MCF-7 cells incubated for 72 hrs by MTT assay; format: functional, cell-based; conditions: MCF7, 72 h
HL-60 [15] = assay: Antiproliferative activity against human HL-60 cells; format: functional, cell-based
HCT-116 [16] = assay: Antiproliferative activity against human HCT-116 cells incubated for 72 hrs by WST-1 assay; format: functional, cell-based; conditions: HCT-116, 72 h
PANC-1 = assay: Cytotoxicity against human Panc-1 cells incubated for 48 hrs by CCK8 assay; format: functional, cell-based; conditions: PANC-1, 48 h

Structure (SMILES): CC1(C)O[C@H]2CC(=O)OC[C@]23[C@H]2CC[C@@]4(C)[C@H](C5=CC(=O)OC5O)OC(=O)[C@H]5O[C@]54[C@]2(C)C(=O)C[C@@H]13 (some centres not stated)
- IC50 [1]: 22000 nM

Structure (SMILES): C=C1CC[C@@H]2[C@](C)(COC(=O)CN(C)c3ccc([N+](=O)[O-])c4nonc34)[C@H](O)CC[C@@]2(C)[C@@H]1C/C=C1/C(=O)OC[C@H]1OC(C)=O
- IC50 (HT-29 [2]): 12000 nM
- IC50 (MDA-MB-231 [3]): 9800 nM
- IC50 (A2058): 4500 nM

Structure (SMILES): C[C@@H]1C(=O)O[C@H]2[C@H](O)[C@]34[C@@H]5OC(=O)[C@]3(O[C@@H]3OC(=O)[C@H](O)[C@@]34[C@H](C(C)(C)C)[C@H]5O)[C@@]12O
- IC50 [4]: 17000 nM
- IC50 [5]: 7500 nM

Structure (SMILES): C[C@H](CO)[C@H]1OC(=O)C=C2[C@@]3(C)[C@H](O)CC[C@]4(C)C(=O)O[C@H]([C@H]5O[C@@]251)[C@H]34
- IC50 (P388): 2100 nM

Structure (SMILES): CC1(C)O[C@H]2CC(=O)OC[C@]23[C@H]2CC[C@@](C)([C@@H](O[C@H]4O[C@H](CO)[C@@H](O)[C@H](O)[C@H]4O)c4ccoc4)[C@@]4(O[C@@H]4C(=O)O)[C@]2(C)C(=O)C[C@@H]13
- IC50 (MDA-MB-435): 119000 nM
- IC50 [1]: 20000 nM
- IC50 (MCF7 [6]): 55000 nM

Structure (SMILES): CC(=O)O[C@@]1(C)COC2(C1)OC(=O)[C@H]([C@@H]1CC[C@]34C[C@]13C=C[C@@H]1[C@@]3(C)CC=C5C[C@@H](Cc6ccccc6)OC[C@]5(C)[C@@H]3C[C@@H](O)[C@]14C)[C@H]2O (some centres not stated)
- IC50 (Jurkat): 2700 nM
- IC50 (CCRF-CEM): 24000 nM
- IC50 (HL-60 [7]): 30000 nM

Structure (SMILES): CC1(C)O[C@H]2CC(=O)OC[C@]23[C@H]2CC[C@@]4(C)[C@H](C5=CC(O)OC5=O)OC(=O)[C@H]5O[C@]54[C@]2(C)C(=O)C[C@@H]13 (some centres not stated)
- IC50 [1]: 18000 nM

Structure (SMILES): CC(=O)OC1C(=O)[C@@H]2[C@@]34COC(O)[C@@](C)([C@H](OC(C)=O)C[C@@H]3O)[C@@H]4C[C@@H](O)[C@@]2(C)[C@@]23O[C@@H]2C[C@@H](c2ccoc2)[C@]13C (some centres not stated)
- IC50 (SK-OV-3): 35 nM
- IC50 (SK-MEL-2): 1.2 nM
- IC50 (A549): 17 nM
- IC50 (XF498): 12 nM
- IC50 (HCT-15): 70 nM

Structure (SMILES): C/C1=C\CC[C@@]2(C)O[C@H]2[C@H]2OC(=O)C(CNC(Cc3ccc(N(CCCl)CCCl)cc3)C(=O)O)[C@@H]2CC1 (some centres not stated)
- IC50 (MCF7 [8]): 1800 nM
- IC50 (HepG2 [9]): 260 nM

Structure (SMILES): CC(C)(O)[C@]12O[C@H]1[C@@H]1O[C@]13[C@]1(O[C@H]1C[C@H]1C4=C(CC[C@@]13C)C(=O)OC4)[C@@H]2O
- IC50 (HepG2 [10]): 770 nM
- IC50 (HCT-116 [11]): 390 nM
- IC50 (BGC-823): 200 nM

Structure (SMILES): COC(=O)[C@@]12OC[C@]34[C@H]([C@@H](O)[C@@H]1O)[C@@]1(C)CC(=O)C(O)=C(C)[C@@H]1C[C@H]3OC(=O)[C@H](OC(=O)/C=C(\C)C(C)C)[C@@H]24 [BRUCEANTIN]
- IC50 (HT-29 [12]): 22 nM
- IC50 (HeLa): 29 nM

Structure (SMILES): COC(=O)[C@@]12OC[C@]34[C@H]([C@@H](O)[C@@H]1O)[C@@]1(C)CC(=O)C(O)=C(C)[C@@H]1C[C@H]3OC(=O)[C@H](OC(=O)CC(C)C)[C@@H]24 [BRUCEINE A]
- IC50 (MDA-MB-231 [13]): 230 nM
- IC50 (HT-29 [12]): 3100 nM
- IC50 (MCF7 [14]): 180 nM
- IC50 (HL-60 [15]): 130 nM
- IC50 (HeLa): 1100 nM
- IC50 (HCT-116 [16]): 82 nM

Structure (SMILES): C[C@@H]1C(=O)O[C@H]2C[C@@]34[C@H]5C[C@@H](C(C)(C)C)[C@]36[C@@H](OC(=O)[C@@H]6O)O[C@@]4(C(=O)O5)[C@]21O [GINKGOLIDE A]
- IC50 [4]: 940 nM
- IC50 [5]: 580 nM

Structure (SMILES): CC1(C)O[C@H]2CC(=O)OC[C@]23[C@H]2CC[C@@]4(C)[C@H](c5ccoc5)OC(=O)[C@H]5O[C@]54[C@]2(C)C(=O)C[C@@H]13 [LIMONIN]
- IC50 (MDA-MB-435): 26000 nM
- IC50 [1]: 42000 nM
- IC50 (MCF7 [6]): 4300 nM

Structure (SMILES): CC(C)[C@]12O[C@H]1[C@@H]1O[C@]13[C@]1(O[C@H]1C[C@H]1C4=C(CC[C@@]13C)C(=O)OC4)[C@@H]2OCOP(=O)(O)O [MINNELIDE]
- IC50 (PANC-1): 200 nM

Structure (SMILES): CC(C)[C@]12O[C@H]1[C@@H]1O[C@]13[C@]1(O[C@H]1C[C@H]1C4=C(C(=O)OC4)[C@@H](O)C[C@@]13C)[C@@H]2O [TRIPDIOLIDE]
- IC50 (HepG2 [10]): 1700 nM
- IC50 (HCT-116 [11]): 730 nM
- IC50 (BGC-823): 910 nM

Structure (SMILES): CC(C)[C@]12O[C@H]1[C@@H]1O[C@]13[C@]1(O[C@H]1C[C@H]1C4=C(CC[C@@]13C)C(=O)OC4)[C@@H]2O [TRIPTOLIDE]
- IC50 (PANC-1): 200 nM
